A short description of one series: Log of liquid dish neat product liquid-air partition coefficient.
Conditions: not given
The class given is physicochemical.
For `CC1=CCCC2(C)CCC3CC12OC3(C)C` (stereo not shown) [Material 726], the “Comment Code: Log of liquid dish neat product liquid-air partition coefficient” value (“Comment Code: Log” for short) is on record as “K (Log of liquid dish neat product liquid-air partition coefficient greater than or equal to 7)”.

For the molecule `CCC(=O)OC1CC2C3C=CCC3C1C2(C)C` (stereo not shown) [Material 343], the “Comment Code: Log” value is “K (Log of liquid dish neat product liquid-air partition coefficient greater than or equal to 7)”.

As for `CCCCCCCC(=O)OCCC(C)C` [Material 237], the “Comment Code: Log” value was “K (Log of liquid dish neat product liquid-air partition coefficient greater than or equal to 7)”.

Turning to `CC(=O)c1cc2c(cc1C)C(C)(C)C(C)C2(C)C` (stereo not shown) [Material 927], the “Comment Code: Log” value is reported as “K (Log of liquid dish neat product liquid-air partition coefficient greater than or equal to 7)”.

For `CCCCCCOC(=O)c1ccco1` [Material 275], the “Comment Code: Log” value is “K (Log of liquid dish neat product liquid-air partition coefficient greater than or equal to 7)”.

Regarding `CCCCCOC(=O)c1ccccc1` [Material 672], the “Comment Code: Log” value is listed as “K (Log of liquid dish neat product liquid-air partition coefficient greater than or equal to 7)”.

For the molecule `CNC(=O)C(C)(C(C)C)C(C)C` [Material 846], the “Comment Code: Log” value is reported as “K (Log of liquid dish neat product liquid-air partition coefficient greater than or equal to 7)”.

Turning to `CC(C=O)=Cc1ccccc1` [Material 701], the “Comment Code: Log” value is on record as “K (Log of liquid dish neat product liquid-air partition coefficient greater than or equal to 7)”.

With `C=CCOC(=O)COc1ccccc1` [Material 743], the “Comment Code: Log” value is “K (Log of liquid dish neat product liquid-air partition coefficient greater than or equal to 7)”.

With `C=C(C)C(=O)OCCc1ccccc1` [Material 971], the “Comment Code: Log” value is listed as “K (Log of liquid dish neat product liquid-air partition coefficient greater than or equal to 7)”.

Turning to `CC1CCC2(O)C(C)(C)C3CCC2(C)C1C3` (stereo not shown) [Material 933], the “Comment Code: Log” value is given as “K (Log of liquid dish neat product liquid-air partition coefficient greater than or equal to 7)”.

Turning to `O=C/C=C/c1ccccc1` [Material 554], the “Comment Code: Log” value is recorded as “K (Log of liquid dish neat product liquid-air partition coefficient greater than or equal to 7)”.

The same series, now with this note: code letter within the Comment Code cell.
`CCC(=O)OCC=Cc1ccccc1` [Material 548]: the “Log of liquid dish neat product liquid-air partition coefficient (Comment Code K/L)” value (from here on “Log … (Comment Code K/L)”) is “K (Log of liquid dish neat product liquid-air partition coefficient greater than or equal to 7)”.

With `CCC(=O)OC1CC2C3C=CCC3C1C2(C)C` (stereo not shown) [Material 343], the “Log … (Comment Code K/L)” value is listed as “K (Log of liquid dish neat product liquid-air partition coefficient greater than or equal to 7)”.

Consider `CCCCCCCCCC(C)C(OC)OC` (stereo not shown) [Material 101], for which the “Log … (Comment Code K/L)” value is listed as “K (Log of liquid dish neat product liquid-air partition coefficient greater than or equal to 7)”.

For `CC(=O)/C=C/C1C(C)CCC(C)C1(C)C` (stereo not shown) [Material 71], the “Log … (Comment Code K/L)” value was “K (Log of liquid dish neat product liquid-air partition coefficient greater than or equal to 7)”.

For `CC(C=O)Cc1cccc(C(C)(C)C)c1` (stereo not shown) [Material 134], the “Log … (Comment Code K/L)” value was “K (Log of liquid dish neat product liquid-air partition coefficient greater than or equal to 7)”.

`CCCCCCCCCCCC(OC)OC` [Material 421]: the “Log … (Comment Code K/L)” value was “K (Log of liquid dish neat product liquid-air partition coefficient greater than or equal to 7)”.

For `C=CCCC(=O)C1CCCC(C)(C)C1` (stereo not shown) [Material 334], the “Log … (Comment Code K/L)” value is recorded as “K (Log of liquid dish neat product liquid-air partition coefficient greater than or equal to 7)”.

For the molecule `CC1=CCC(C(C)CC=O)CC1` (stereo not shown) [Material 159], the “Log … (Comment Code K/L)” value is listed as “K (Log of liquid dish neat product liquid-air partition coefficient greater than or equal to 7)”.

Take `C=CC(C)(CCC=C(C)C)OC(=O)C(C)C` (stereo not shown) [Material 149]: the “Log … (Comment Code K/L)” value is reported as “K (Log of liquid dish neat product liquid-air partition coefficient greater than or equal to 7)”.

With `C=C1C=CC(C(C)C)CCC(C)=CCC1` (stereo not shown) [Material 296], the “Log … (Comment Code K/L)” value is “K (Log of liquid dish neat product liquid-air partition coefficient greater than or equal to 7)”.

As for `c1ccc(Cc2ccccc2)cc1` [Material 429], the “Log … (Comment Code K/L)” value was “K (Log of liquid dish neat product liquid-air partition coefficient greater than or equal to 7)”.

On to `CCCCCCCCCCCCCC(=O)OC(C)C` [Material 196], for which the “Log … (Comment Code K/L)” value is “K (Log of liquid dish neat product liquid-air partition coefficient greater than or equal to 7)”.

In the case of `c1ccc(CCc2ccccc2)cc1` [Material 457], the “Log … (Comment Code K/L)” value is reported as “K (Log of liquid dish neat product liquid-air partition coefficient greater than or equal to 7)”.

The same series, now with this note: code letters K/L of the Comment Code.
On to `COC1CC2CC1C1CC(C=O)CC21` (stereo not shown) [Material 1026], for which the “Log of liquid dish neat product liquid-air partition coefficient (Comment Code)” value (shortened to “Log … (Comment Code)”) was “K (Log of liquid dish neat product liquid-air partition coefficient greater than or equal to 7)”.

With `CCCCCCCCCC(=O)O` [Material 582], the “Log … (Comment Code)” value is recorded as “K (Log of liquid dish neat product liquid-air partition coefficient greater than or equal to 7)”.

Take `CC1=CCCC2(C)CCC3CC12OC3(C)C` (stereo not shown) [Material 726]: the “Log … (Comment Code)” value is recorded as “K (Log of liquid dish neat product liquid-air partition coefficient greater than or equal to 7)”.

Regarding `COCCOC(C)OCc1ccccc1` (stereo not shown) [Material 768], the “Log … (Comment Code)” value is on record as “K (Log of liquid dish neat product liquid-air partition coefficient greater than or equal to 7)”.

As for `CC(=O)c1cc2c(cc1C)C(C)(C)C(C)C2(C)C` (stereo not shown) [Material 927], the “Log … (Comment Code)” value is reported as “K (Log of liquid dish neat product liquid-air partition coefficient greater than or equal to 7)”.

As for `C=CCCC(=O)c1ccccc1` [Material 792], the “Log … (Comment Code)” value was “K (Log of liquid dish neat product liquid-air partition coefficient greater than or equal to 7)”.

For `CC(=O)C1CC/C(C)=C\CC/C(C)=C\C/C=C/1C` (stereo not shown) [Material 1095], the “Log … (Comment Code)” value is recorded as “K (Log of liquid dish neat product liquid-air partition coefficient greater than or equal to 7)”.

For `CCC(C)C(=O)OCCc1ccccc1` (stereo not shown) [Material 954], the “Log … (Comment Code)” value is “K (Log of liquid dish neat product liquid-air partition coefficient greater than or equal to 7)”.

As for `CCCCCCCCCCO` [Material 868], the “Log … (Comment Code)” value is on record as “K (Log of liquid dish neat product liquid-air partition coefficient greater than or equal to 7)”.

With `CC1CCC2(O)C(C)(C)C3CCC2(C)C1C3` (stereo not shown) [Material 933], the “Log … (Comment Code)” value is “K (Log of liquid dish neat product liquid-air partition coefficient greater than or equal to 7)”.

On to `CC1(O)CCC2=C(CCCC2(C)C)C1` (stereo not shown) [Material 675], for which the “Log … (Comment Code)” value is recorded as “K (Log of liquid dish neat product liquid-air partition coefficient greater than or equal to 7)”.

Consider `CC(C)=CCC=C(C)C1CC=C(C)CC1` (stereo not shown) [Material 719], for which the “Log … (Comment Code)” value is “K (Log of liquid dish neat product liquid-air partition coefficient greater than or equal to 7)”.

These data come from patent US20170333591A9, “ABSORBENT ARTICLE COMPRISING MALODOR REDUCTION COMPOSITIONS” (The Procter & Gamble Company, priority 2014, published 2017).
